Activity calls are given as the source filed them. No cut-off for these calls is given here.

The species entered for this experiment is Mus musculus. Description: Antitumor activity against B16-melanoma bearing mice; active. Format: functional, organism-based.
As to `CCCCCCCCCCCCCCCCCCCCCC[C@@H](O)C(=O)N[C@@H](CO[C@H]1O[C@@H](CO)[C@H](O)[C@H](O)[C@@H]1O)[C@H](O)[C@H](O)CCCCCCCCCCCC`, the outcome was Active. Then `CCCCCCCCCCCCCCCCCCCCCCC[C@@H](O)C(=O)N[C@@H](CO[C@H]1O[C@@H](CO)[C@H](O)[C@H](O)[C@@H]1O)[C@H](O)[C@H](O)CCCCCCCCCCCC(C)CC` (some centres undefined), with “Active”; and `CCCCCCCCCCCCCCCCCCCCCC[C@@H](O)C(=O)N[C@@H](CO[C@H]1O[C@@H](CO)[C@H](O)[C@H](O)[C@@H]1O)[C@H](O)[C@H](O)CCCCCCCCCCCC(C)CC` (some centres undefined), with “Active”; and `CCCCCCCCCCCCCCCCCCCCCC[C@@H](O)C(=O)N[C@@H](CO[C@H]1O[C@@H](CO)[C@H](O)[C@H](O)[C@@H]1O)[C@H](O)[C@H](O)CCCCCCCCCCCC(C)C`, with “Active”.

Values taken from ChEMBL document CHEMBL1128624, “Syntheses of -, -monoglycosylceramides and four diastereomers of an -galactosylceramide” (Bioorg Med Chem Lett, 1995).
